Reference: ChEMBL document CHEMBL1201862, “PubChem BioAssay data set” (2004)
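How tested: cells in 96-well plates exposed to compound for 48 hours at five concentrations. GI50 is the concentration that inhibits growth by half.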 Calls of active or inactive are those of the source. Cut-off read from the data, not from the text of the source: active = GI50 up to about 1.1 µM and inactive = higher.

Key:
Assay in all cases: NCI tumour cell line growth inhibition, 48 h
OVCAR-8 = system: OVCAR-8
SNB-75 = system: SNB-75
COLO 205 = system: COLO 205
IGROV-1 = system: IGROV-1
NCI-H23 = system: NCI-H23
SW-620 = system: SW-620
HCT-116 = system: HCT-116
SK-OV-3 = system: SK-OV-3
SF-539 = system: SF-539
RPMI-8226 = system: RPMI-8226
HOP-62 = system: HOP-62
K562 = system: K562
A549 = system: A549
M14 = system: M14
OVCAR-3 = system: OVCAR-3
786-0 = system: 786-0
PC-3 = system: PC-3
MDA-MB-231 = system: MDA-MB-231

Measured: GI50

Cc1ccc(C)c(NC(=O)c2cc(-c3ccc([N+](=O)[O-])cc3)nc(N)n2)c1
inactive: OVCAR-8 > 100 µM | SNB-75 > 100 µM | COLO 205 > 100 µM | IGROV-1 > 100 µM | NCI-H23 > 100 µM | SW-620 > 100 µM | HCT-116 > 100 µM | SK-OV-3 > 100 µM | SF-539 > 100 µM | RPMI-8226 > 100 µM | HOP-62 > 100 µM | K562 > 100 µM | A549 > 100 µM | M14 > 100 µM | OVCAR-3 > 100 µM | 786-0 > 100 µM

O=c1ccn2n1Cc1ccccc1C2
inactive: OVCAR-8 > 100 µM | COLO 205 > 100 µM | PC-3 > 100 µM | IGROV-1 > 100 µM | NCI-H23 > 100 µM | SW-620 > 100 µM | HCT-116 > 100 µM | SK-OV-3 > 100 µM | MDA-MB-231 > 100 µM | SF-539 > 100 µM | RPMI-8226 > 100 µM | HOP-62 > 100 µM | K562 > 100 µM | A549 > 100 µM | M14 > 100 µM | OVCAR-3 > 100 µM | 786-0 > 100 µM

Cc1cc(=O)oc2cc(OCc3nc4ccccc4c(=O)n3-c3ccccc3)ccc12
inactive: OVCAR-8 45.1 µM | SNB-75 20.7 µM | COLO 205 > 100 µM | IGROV-1 > 100 µM | NCI-H23 > 100 µM | SW-620 > 100 µM | HCT-116 > 100 µM | SK-OV-3 53.6 µM | SF-539 > 100 µM | RPMI-8226 > 100 µM | HOP-62 97.7 µM | K562 > 100 µM | A549 > 100 µM | M14 > 100 µM | OVCAR-3 > 100 µM | 786-0 38.4 µM

Clc1ccc(-n2nnc(C3=NCCCN3)c2-c2ccccc2)cc1
inactive: OVCAR-8 > 100 µM | SNB-75 > 100 µM | COLO 205 67.3 µM | IGROV-1 > 100 µM | NCI-H23 > 100 µM | SW-620 > 100 µM | HCT-116 > 100 µM | SK-OV-3 > 100 µM | SF-539 > 100 µM | RPMI-8226 > 100 µM | HOP-62 > 100 µM | K562 > 100 µM | A549 > 100 µM | M14 > 100 µM | OVCAR-3 > 100 µM | 786-0 > 100 µM

COC(=O)c1c/c(=N\NC(=O)CC(=O)Nc2ccc(C)cc2)c2ccccc2o1
inactive: OVCAR-8 > 100 µM | SNB-75 > 100 µM | COLO 205 > 100 µM | IGROV-1 > 100 µM | NCI-H23 > 100 µM | SW-620 > 100 µM | HCT-116 > 100 µM | SK-OV-3 > 100 µM | SF-539 > 100 µM | RPMI-8226 > 100 µM | HOP-62 > 100 µM | K562 > 100 µM | A549 > 100 µM | M14 > 100 µM | OVCAR-3 > 100 µM | 786-0 > 100 µM

C[C@]12CCC(=O)C=C1CC[C@@H]1[C@@H]2CC[C@]2(C)C(=O)NC(=O)C[C@@H]12
inactive: OVCAR-8 > 100 µM | SNB-75 > 100 µM | COLO 205 > 100 µM | IGROV-1 > 100 µM | NCI-H23 > 100 µM | SW-620 > 100 µM | HCT-116 > 100 µM | SK-OV-3 > 100 µM | SF-539 > 100 µM | RPMI-8226 > 100 µM | HOP-62 > 100 µM | K562 > 100 µM | A549 > 100 µM | M14 > 100 µM | OVCAR-3 > 100 µM | 786-0 > 100 µM
